Experimental data published in US10160755B2 (Plexxikon Inc., priority 2015, dated 2018).

Key:
FLT3-D835Y = molecular target: T1, FLT3-D835Y (Homo sapiens, UniProt P36888, D835Y); test: FLT3-D835Y biochemical kinase assay (AlphaScreen)
T1 construct: purchased Invitrogen PV3967
T1 sequence (P36888 27-993 D835Y): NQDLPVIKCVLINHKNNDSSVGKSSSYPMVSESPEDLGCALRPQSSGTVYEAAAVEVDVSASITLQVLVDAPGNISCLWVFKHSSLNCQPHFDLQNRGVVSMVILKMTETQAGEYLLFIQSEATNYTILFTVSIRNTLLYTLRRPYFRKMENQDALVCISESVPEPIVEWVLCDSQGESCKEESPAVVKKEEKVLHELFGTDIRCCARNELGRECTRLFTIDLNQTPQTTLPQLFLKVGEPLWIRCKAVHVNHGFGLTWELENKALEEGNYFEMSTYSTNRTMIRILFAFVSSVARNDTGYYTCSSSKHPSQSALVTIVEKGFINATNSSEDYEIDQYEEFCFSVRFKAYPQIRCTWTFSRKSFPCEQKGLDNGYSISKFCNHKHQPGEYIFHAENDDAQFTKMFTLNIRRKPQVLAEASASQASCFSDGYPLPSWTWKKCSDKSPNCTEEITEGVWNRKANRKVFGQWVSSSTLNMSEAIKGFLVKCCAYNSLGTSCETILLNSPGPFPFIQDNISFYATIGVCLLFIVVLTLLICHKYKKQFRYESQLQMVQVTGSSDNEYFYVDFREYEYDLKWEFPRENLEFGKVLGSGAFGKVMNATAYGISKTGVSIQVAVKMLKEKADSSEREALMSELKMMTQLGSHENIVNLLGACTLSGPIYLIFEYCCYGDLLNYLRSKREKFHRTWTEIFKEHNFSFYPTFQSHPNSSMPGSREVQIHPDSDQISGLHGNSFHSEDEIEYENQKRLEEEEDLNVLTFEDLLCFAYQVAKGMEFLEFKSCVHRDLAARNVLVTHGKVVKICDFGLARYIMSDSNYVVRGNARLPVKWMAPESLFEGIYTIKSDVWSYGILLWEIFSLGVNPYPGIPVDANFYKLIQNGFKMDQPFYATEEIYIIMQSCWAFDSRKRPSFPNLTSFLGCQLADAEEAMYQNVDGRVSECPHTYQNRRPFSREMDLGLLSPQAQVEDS
How it was run: (§1)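 Recombinant kinase, biotin-GG(EEEEY)10EE 30 nM final, ATP 10 μM (D835Y) / 100 μM (ITD). Stop/detect: SA donor beads 20 min RT, then PY20 acceptor beads 60 min RT. AlphaScreen 580 nm signal; IC50.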

FLT3-ITD = molecular target: T2, FLT3-ITD (Homo sapiens, UniProt P36888); test: FLT3-ITD biochemical kinase assay (AlphaScreen)
T2 construct: FLT3-ITD; Invitrogen #PV6190
T2 sequence (P36888 1-993): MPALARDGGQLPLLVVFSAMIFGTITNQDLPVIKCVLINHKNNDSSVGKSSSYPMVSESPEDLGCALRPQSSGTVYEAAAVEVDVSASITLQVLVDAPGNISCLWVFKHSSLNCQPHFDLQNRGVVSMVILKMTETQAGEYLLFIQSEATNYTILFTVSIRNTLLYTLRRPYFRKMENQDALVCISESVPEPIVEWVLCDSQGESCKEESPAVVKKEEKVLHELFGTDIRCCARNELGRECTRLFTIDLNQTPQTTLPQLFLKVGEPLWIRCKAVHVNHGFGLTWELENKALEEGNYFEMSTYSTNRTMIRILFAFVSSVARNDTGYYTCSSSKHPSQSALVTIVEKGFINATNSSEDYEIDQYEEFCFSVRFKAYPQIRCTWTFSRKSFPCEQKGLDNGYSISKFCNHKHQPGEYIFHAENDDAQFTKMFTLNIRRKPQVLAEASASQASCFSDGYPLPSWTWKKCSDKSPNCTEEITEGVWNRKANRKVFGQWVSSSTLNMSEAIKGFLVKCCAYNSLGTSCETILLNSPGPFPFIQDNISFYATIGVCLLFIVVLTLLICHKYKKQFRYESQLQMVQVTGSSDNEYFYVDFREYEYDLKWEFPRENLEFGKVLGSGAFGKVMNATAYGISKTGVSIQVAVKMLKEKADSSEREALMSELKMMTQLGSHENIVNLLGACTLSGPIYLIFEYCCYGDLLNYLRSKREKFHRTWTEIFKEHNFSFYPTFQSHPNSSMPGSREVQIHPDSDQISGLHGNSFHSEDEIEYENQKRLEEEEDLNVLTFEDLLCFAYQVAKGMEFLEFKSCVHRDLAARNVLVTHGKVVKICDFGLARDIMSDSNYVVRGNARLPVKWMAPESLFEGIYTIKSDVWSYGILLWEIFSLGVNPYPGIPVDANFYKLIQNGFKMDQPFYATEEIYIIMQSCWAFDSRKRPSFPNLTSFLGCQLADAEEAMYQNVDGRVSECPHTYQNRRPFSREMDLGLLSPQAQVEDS
How it was run: as §1

c-Kit = c-Kit (Homo sapiens, UniProt P10721); test: c-Kit biochemical assay (per US 2007/0032519)
Sequence of c-Kit (P10721 26-976): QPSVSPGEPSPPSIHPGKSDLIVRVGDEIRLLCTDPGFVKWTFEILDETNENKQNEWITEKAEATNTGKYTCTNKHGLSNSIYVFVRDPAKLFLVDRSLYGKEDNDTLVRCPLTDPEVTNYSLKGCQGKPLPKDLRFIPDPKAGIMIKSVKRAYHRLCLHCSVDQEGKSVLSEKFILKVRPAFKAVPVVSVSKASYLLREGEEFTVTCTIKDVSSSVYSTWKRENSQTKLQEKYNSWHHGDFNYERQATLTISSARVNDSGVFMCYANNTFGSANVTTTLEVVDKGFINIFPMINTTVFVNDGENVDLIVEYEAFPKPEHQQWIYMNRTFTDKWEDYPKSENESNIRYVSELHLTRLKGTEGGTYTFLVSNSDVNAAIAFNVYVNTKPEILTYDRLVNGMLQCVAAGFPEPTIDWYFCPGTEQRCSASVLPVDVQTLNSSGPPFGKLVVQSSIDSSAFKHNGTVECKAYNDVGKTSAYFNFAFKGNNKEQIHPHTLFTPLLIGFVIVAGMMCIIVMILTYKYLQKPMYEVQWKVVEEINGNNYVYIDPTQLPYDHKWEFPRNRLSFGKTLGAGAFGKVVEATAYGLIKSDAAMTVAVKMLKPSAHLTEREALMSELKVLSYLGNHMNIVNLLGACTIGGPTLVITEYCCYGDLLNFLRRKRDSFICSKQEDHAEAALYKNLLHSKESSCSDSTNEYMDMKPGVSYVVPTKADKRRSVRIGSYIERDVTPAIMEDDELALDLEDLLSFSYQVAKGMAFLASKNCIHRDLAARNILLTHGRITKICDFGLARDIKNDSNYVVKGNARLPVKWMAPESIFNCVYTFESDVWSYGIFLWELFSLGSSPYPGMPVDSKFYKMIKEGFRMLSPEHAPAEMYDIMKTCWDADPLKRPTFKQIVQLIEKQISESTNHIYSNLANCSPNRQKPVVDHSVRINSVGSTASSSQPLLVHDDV
How it was run: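 Biochemical kinase inhibition run per US 2007/0032519; values reported as binned IC50 ranges (0.0001–1 μM, 1–10 μM, 10–200 μM).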

SMILES	IC50 (FLT3-D835Y)	IC50 (FLT3-ITD)	IC50 (c-Kit)
COc1cnc2[nH]cc(-c3cnc4[nH]cnc4c3)c2c1 [P-052, 6-(5-methoxy-1H-pyrrolo[2,3-b]pyridin-3-yl)-3H-imidazo[4,5-b]pyridine]	0.0001 to 1 µM	0.0001 to 1 µM	1 to 10 µM
CC(=O)Nc1cccc(-c2cnc3[nH]cc(-c4ccc5ncn(C)c5c4)c3c2)c1 [P-116, N-[3-[3-(3-methylbenzimidazol-5-yl)-1H-pyrrolo[2,3-b]pyridin-5-yl]phenyl]acetamide]	0.0001 to 1 µM	0.0001 to 1 µM	1 to 10 µM
COc1cnc2[nH]cc(-c3ccc4scnc4c3)c2c1 [P-051, 5-(5-methoxy-1H-pyrrolo[2,3-b]pyridin-3-yl)-1,3-benzothiazole]	0.0001 to 1 µM	0.0001 to 1 µM	10 to 200 µM
Cn1cnc2ccc(-c3c[nH]c4ncc(OCC#N)cc34)cc21 [P-084, 2-[[3-(3-methylbenzimidazol-5-yl)-1H-pyrrolo[2,3-b]pyridin-5-yl]oxy]acetonitrile]	0.0001 to 1 µM	0.0001 to 1 µM	1 to 10 µM
Cn1cnc2ccc(-c3c[nH]c4ncccc34)cc21 [P-009, 1-methyl-6-(1H-pyrrolo[2,3-b]pyridin-3-yl)benzimidazole]	0.0001 to 1 µM	0.0001 to 1 µM	1 to 10 µM
CCS(=O)(=O)Nc1cccc(-c2cnc3[nH]cc(-c4ccc5ncn(C)c5c4)c3c2)c1 [P-094, N-[3-[3-(3-methylbenzimidazol-5-yl)-1H-pyrrolo[2,3-b]pyridin-5-yl]phenyl]ethanesulfonamide]	0.0001 to 1 µM	0.0001 to 1 µM	1 to 10 µM
CC(C)(C)n1cnc2ccc(-c3c[nH]c4ncc(C5=CCN(C(=O)C6CC6)C5)nc34)cc21 [P-127, [3-[7-(3-tert-butylbenzimidazol-5-yl)-5H-pyrrolo[2,3-b]pyrazin-2-yl]-2,5-dihydropyrrol-1-yl]-cyclopropyl-methanone]	0.0001 to 1 µM	0.0001 to 1 µM	1 to 10 µM
COc1ncc(-c2cnc3[nH]cc(-c4ccc5ncn(C(C)(C)C)c5c4)c3n2)cc1F [P-385, 7-(3-tert-butylbenzimidazol-5-yl)-2-(5-fluoro-6-methoxy-3-pyridyl)-5H-pyrrolo[2,3-b]pyrazine]	0.0001 to 1 µM	0.0001 to 1 µM	0.0001 to 1 µM
COc1cnc2[nH]cc(-c3ccc4occc4c3)c2c1 [P-036, 3-(benzofuran-5-yl)-5-methoxy-1H-pyrrolo[2,3-b]pyridine]	10 to 200 µM	1 to 10 µM	10 to 200 µM
CCCn1cnc2cc(-c3c[nH]c4ncc(OC)cc34)ccc21 [P-056, 5-methoxy-3-(1-propylbenzimidazol-5-yl)-1H-pyrrolo[2,3-b]pyridine]	0.0001 to 1 µM	0.0001 to 1 µM	10 to 200 µM
O=C(C1CC1)N1CC=C(c2cnc3[nH]cc(-c4ccc5ncn(CC(F)(F)F)c5c4)c3c2)C1 [P-133, cyclopropyl-[3-[3-[3-(2,2,2-trifluoroethyl)benzimidazol-5-yl]-1H-pyrrolo[2,3-b]pyridin-5-yl]-2,5-dihydropyrrol-1-yl]methanone]	0.0001 to 1 µM	0.0001 to 1 µM	1 to 10 µM
COc1cnc2[nH]cc(-c3ccc4ncn(CC5CC5)c4c3)c2c1 [P-062, 1-(cyclopropylmethyl)-6-(5-methoxy-1H-pyrrolo[2,3-b]pyridin-3-yl)benzimidazole]	0.0001 to 1 µM	0.0001 to 1 µM	10 to 200 µM
COc1cc(-c2cnc3[nH]cc(-c4ccc5ncn(C)c5c4)c3n2)ccn1 [P-045, 2-(2-methoxy-4-pyridyl)-7-(3-methylbenzimidazol-5-yl)-5H-pyrrolo[2,3-b]pyrazine]	0.0001 to 1 µM	0.0001 to 1 µM	10 to 200 µM
Cn1cnc2ccc(-c3c[nH]c4ncc(-c5cccc(S(=O)(=O)N6CCCC6)c5)cc34)cc21 [P-122, 1-methyl-6-[5-(3-pyrrolidin-1-ylsulfonylphenyl)-1H-pyrrolo[2,3-b]pyridin-3-yl]benzimidazole]	0.0001 to 1 µM	0.0001 to 1 µM	1 to 10 µM
COc1cnc2[nH]cc(-c3ccc4ncn(C)c4c3)c2c1 [P-016, 5-methoxy-3-(3-methylbenzimidazol-5-yl)-1H-pyrrolo[2,3-b]pyridine]	0.0001 to 1 µM	0.0001 to 1 µM	10 to 200 µM
COc1cnc2[nH]cc(-c3cnc4c(c3)ncn4C)c2c1 [P-055, 6-(5-methoxy-1H-pyrrolo[2,3-b]pyridin-3-yl)-3-methyl-imidazo[4,5-b]pyridine]	10 to 200 µM	0.0001 to 1 µM	10 to 200 µM
CS(=O)(=O)Nc1cccc(-c2cnc3[nH]cc(-c4ccc5c(c4)OCCO5)c3n2)c1 [P-059, N-[3-[7-(2,3-dihydro-1,4-benzodioxin-6-yl)-5H-pyrrolo[2,3-b]pyrazin-2-yl]phenyl]methanesulfonamide]	0.0001 to 1 µM	0.0001 to 1 µM	10 to 200 µM
Cn1cnc2ccc(-c3c[nH]c4ncc(-c5cccc(N6CCCS6(=O)=O)c5)cc34)cc21 [P-093, 2-[3-[3-(3-methylbenzimidazol-5-yl)-1H-pyrrolo[2,3-b]pyridin-5-yl]phenyl]-1,2-thiazolidine 1,1-dioxide]	0.0001 to 1 µM	0.0001 to 1 µM	1 to 10 µM
CS(=O)(=O)Nc1cccc(-c2cnc3[nH]cc(-c4ccc5[nH]cnc5c4)c3n2)c1 [P-011, N-[3-[7-(1H-benzimidazol-5-yl)-5H-pyrrolo[2,3-b]pyrazin-2-yl]phenyl]methanesulfonamide]	0.0001 to 1 µM	0.0001 to 1 µM	1 to 10 µM
CC(C)(O)C#Cc1cnc2[nH]cc(-c3ccc4ncn(C(C)(C)C)c4c3)c2n1 [P-377, 4-[7-(3-tert-butylbenzimidazol-5-yl)-5H-pyrrolo[2,3-b]pyrazin-2-yl]-2-methyl-but-3-yn-2-ol]	0.0001 to 1 µM	0.0001 to 1 µM	1 to 10 µM
COc1ccc(-c2cnc3[nH]cc(-c4ccc5ncn(C)c5c4)c3n2)cn1 [P-041, 2-(6-methoxy-3-pyridyl)-7-(3-methylbenzimidazol-5-yl)-5H-pyrrolo[2,3-b]pyrazine]	0.0001 to 1 µM	0.0001 to 1 µM	1 to 10 µM
CS(=O)(=O)Nc1cccc(-c2cnc3[nH]cc(-c4ccc5ncn(C6CCCC6)c5c4)c3c2)c1 [P-066, N-[3-[3-(3-cyclopentylbenzimidazol-5-yl)-1H-pyrrolo[2,3-b]pyridin-5-yl]phenyl]methanesulfonamide]	0.0001 to 1 µM	0.0001 to 1 µM	0.0001 to 1 µM
Fc1cnc2[nH]cc(-c3ccc4nc[nH]c4c3)c2c1 [P-022, 3-(3H-benzimidazol-5-yl)-5-fluoro-1H-pyrrolo[2,3-b]pyridine]	1 to 10 µM	1 to 10 µM	10 to 200 µM
